Experimental data: patent US20260091082A1, “CYCLIC PEPTIDE DERIVATIVE COMPOSITION FOR TREATING OR PREVENTING EYE DISEASE” (DKS Co. Ltd., priority 2022, published 2026)
Where “and” joins values, the source holds several entries; their conditions need not be identical. Identical values can stand only once.

Tested on: anterior chamber aqueous humor pressure load rat model
Assay: Retinal thickness (IPL, INL, ONL) in retinal damage model induced by anterior chamber aqueous humor pressure load
Type: in vivo, Rat; Slc: SD
Settings: for Thickness of ONL (μm) / Thickness of INL (μm) / Thickness of IPL (μm): 14 days after model creation, mean ± S.E., 10 animals
Experimental: • Name: Compound 9 • Source: Synthesized in the above Examples • Used amount: 0.4 mL (50 mg/mL solution) • Storage conditions: Freezing, light shielding
Method for preparing test substance (1 mg/mL): A high concentration solution prepared at 50 mg/mL was diluted 50 times with a medium to prepare a 1 mg/mL administration solution.
• Name: MK-801 • Distributor: SIGMA-ALDRICH • Use amount: 0.0501 g • Storage condition: refrigerated (2° C. to 8° C.)
Method for preparing positive control substance (10 mg/mL): 0.0501 g was weighed out and made up to a total volume of 5 mL with a control substance (physiological saline).
• Species and strains: Rat; Slc: SD • Number of animals on arrival and sex: 50 males • Age in weeks at arrival: 6 weeks old • Body weight range at arrival: 147.2 to 170.0 g • Source: Japan SLC, Inc.
Grouping was performed two days before the first creation of the retinal damage model induced by an anterior chamber aqueous humor pressure load. Using the daily body weight as an index, stratified random allocation was performed using SAS (Ver. 9.3, SAS Institute Japan Ltd.) and EXSUS (Ver. 8.0, CAC Croit Corporation) so that an average value of the body weights of each group was approximately uniform.
• Administration route: Eyedrop administration, intravenous administration • Administration method (eyedrop): Eyedrop administration was performed on a treated eye (right eye) of a rat using a micropipette 4 times a day (at intervals of 1.5 hours or more). • Administration method (intravenous): The amount of administration solution, calculated from the body weight on the day of administration, was administered from the tail vein using a syringe and an injection needle about 30 minutes before ischemic load. • Time of administration: Administration was performed according to the following schedule.
1. 10 mg/kg xylazine hydrochloride was intramuscularly administered on the model creation day (day 0). A rat was placed in an anesthesia box and subjected to general anesthesia with isoflurane (5%, oxygen:nitrous oxide=1:3). When anesthesia was effective, the rat was taken out of the anesthesia box, an inhalation anesthetic mask was worn, and anesthesia was maintained with isoflurane (1% to 5%, oxygen nitrous oxide=1:3).
2. The body temperature was maintained at 37° C. with a warming mat, and a mydrin P ophthalmic solution was instilled in the right eye (treated eye) of the rat to dilate the pupil, then the cravit ophthalmic solution 1.5% (Santen Pharmaceutical Co., Ltd.) was instilled.
3. A bottle of an IV bag containing physiological saline was previously suspended so that a water surface was 155 cm (100 mmHg or more) higher than the eye of the rat. The IV bag was connected to a pediatric infusion set (Terumo Corporation), a 27 G injection needle thereof was inserted into and fixed to the anterior chamber while slightly dripping the liquid from a needle tip. The model was created in the light phase (6:00 to 18:00) in consideration of the diurnal variation of the intraocular pressure.
4. After the needle was inserted into the anterior chamber, pressure (100 mmHg or more) was loaded and maintained in the anterior chamber by associating the reflux system.
5. After an ischemic load for 45 minutes, the injection needle and the like were removed, the inhalation anesthetic mask was removed, and the rat was sufficiently woken up under a warming mat, and then returned to the cage.
6. For 2 days after surgery, 10 mg/kg xylazine hydrochloride was intramuscularly administered as an analgesic for the purpose of alleviating the pain after the treatment.
1. Fourteen days after model creation, general anesthesia was performed with isoflurane (5%, oxygen:nitrous oxide=1:3), euthanasia was then performed by exsanguination, a suture was placed as a marker at the 12 o'clock position of the ocular conjunctiva, and eyeball enucleation was performed.
2. […]

[1] = 600 μm from optic disk, (pre) 1 mg/mL eye drop 4 times/day on the 2 days before model creation (test group 2)
[2] = 600 μm from optic disk, (pre) 1 mg/mL eye drop 4 times/day on the 2 days before model creation (test group 2), listed as compound 9
[3] = 900 μm from optic disk, 1 mg/mL eye drop 4 times/day for 13 days from the day after model creation (test group 3)
[4] = 900 μm from optic disk, 1 mg/mL eye drop 4 times/day for 13 days from the day after model creation (test group 3), listed as compound 9
[5] = 900 μm from optic disk, (pre) 1 mg/mL eye drop 4 times/day on the 2 days before model creation (test group 2)
[6] = 900 μm from optic disk, (pre) 1 mg/mL eye drop 4 times/day on the 2 days before model creation (test group 2), listed as compound 9
[7] = compound 9 (pre), 1 mg/mL eye drop, right eye, individual animals 201-210

## CC[C@@]1(C)Oc2cc(ccc2O)C[C@H](NC)C(=O)N[C@@H](C(C)C)C(=O)N[C@@H]1C(=O)N[C@@H](CC(=O)O)C(=O)O [Compound 9]
600 μm from optic disk, 1 mg/mL eye drop 4 times/day for 13 days from the day after model creation (test group 3), listed as compound 9
  Thickness of ONL (μm): 42.33 ± 1.81 μm
[1]
  Thickness of INL (μm): 31.25±1.29 μm
  Thickness of IPL (μm): 38.85±1.23 μm
  Thickness of ONL (μm): 43.03±0.82 μm
[2]
  Thickness of INL (μm): 31.25 ± 1.29 μm
  Thickness of ONL (μm): 43.03 ± 0.82 μm
[3]
  Thickness of IPL (μm): 44.32±1.47 μm
  Thickness of ONL (μm): 39.42±1.92 μm
[4]
  Thickness of INL (μm): 28.71 ± 1.67 μm
  Thickness of ONL (μm): 39.42 ± 1.92 μm
[5]
  Thickness of INL (μm): 30.39±1.24 μm
  Thickness of IPL (μm): 41.51±1.27 μm
  Thickness of ONL (μm): 42.55±1.13 μm
[6]
  Thickness of INL (μm): 30.39 ± 1.24 μm
  Thickness of ONL (μm): 42.55 ± 1.13 μm
Anterior chamber aqueous humor pressure load rat model, overall conclusion
  Inhibitory effect on retinal damage induced by ischemia of aqueous humor pressure load: inhibitory effect on retinal damage induced by ischemia of aqueous humor pressure load was observed
[7]
  Thickness of ONL, distance from optic disk 600 μm (single measurement): 41.121 μm and 44.598 μm and 41.326 μm (2×) and 41.066 μm and 41.161 μm and 38.743 μm and 41.131 μm and 38.275 μm and 37.963 μm and 43.645 μm and 43.106 μm and 45.168 μm and 47.317 μm and 40.325 μm and 41.137 μm and 43.653 μm and 45.150 μm and 48.296 μm and 46.805 μm and 44.685 μm and 46.160 μm and 42.772 μm and 45.479 μm and 40.612 μm and 40.588 μm and 46.031 μm and 41.299 μm and 42.932 μm and 48.910 μm
  Thickness of ONL, distance from optic disk 900 μm (single measurement): 39.011 μm and 42.742 μm and 45.091 μm and 47.744 μm and 45.684 μm and 43.996 μm and 37.237 μm and 36.389 μm and 38.143 μm and 43.578 μm and 39.518 μm and 41.375 μm and 35.794 μm and 34.452 μm and 41.663 μm and 42.383 μm and 44.814 μm and 41.883 μm and 43.824 μm and 46.139 μm and 43.354 μm and 38.661 μm and 41.202 μm and 40.552 μm and 46.165 μm and 45.398 μm and 48.471 μm and 47.795 μm and 47.248 μm and 46.278 μm
Compound 9 (pre), 1 mg/mL eye drop, right eye, individual animals 201-210, aqueous humor pressure load rat model
  Thickness of ONL, distance from optic disk 300 μm (single measurement): 50.813 μm and 51.311 μm and 53.250 μm and 34.452 μm and 30.709 μm and 34.312 μm and 40.039 μm and 41.413 μm and 11.468 μm and 39.811 μm and 37.328 μm and 39.938 μm and 33.741 μm and 35.794 μm and 35.603 μm and 42.742 μm and 44.362 μm and 44.355 μm and 36.433 μm and 40.355 μm and 37.980 μm and 39.617 μm and 40.341 μm and 39.065 μm and 40.883 μm and 41.062 μm and 40.112 μm and 37.690 μm and 36.851 μm and 39.911 μm
